In patent publication US20040077092A1, “Control and calibration material for blood coagulation tests” (priority 2002, published 2004):

What was measured:
Assay type in all cases: biochemical
[1] = system: Citrate plasma that was obtained from rabbits; experiment: Prothrombin time test, CoaguChek Pro; prolongation substance added to plasma before lyophilization; conditions: lyophilized, rehydrated with distilled water, PT
Method: Production and Use of the Inventive Control and Calibration Material for the Product CoaguChek® Pro (test for determining the prothrombin time) from Roche Diagnostics
Effect of the Prolongation Substance when Added to Plasma for the Production of the Control and Calibration Material.
Citrate plasma that was obtained from rabbits was processed further as follows.
A portion of the citrate plasma is left untreated and filled in 3.0 ml portions into siliconized vessels and lyophilized. The remainder of the plasma is used to produce preparations to which 2.0%, 3.5% and 5.0% urea (in each case % by weight) is added in each case to the plasma as the prolongation substance. These mixtures are also filled in 3.0 ml portions and lyophilized.
After rehydration of the individual preparations with distilled water, the samples obtained in this manner are added dropwise to test cards of the CoaguChek® Pro from Roche Diagnostics and the seconds which elapse until the onset of coagulation is determined on the accompanying measuring instrument CoaguChek® Pro.

[2] = system: Commercial control material level 1 for the CoaguChek system; experiment: Prothrombin time test, CoaguChek system; prolongation substance in the rehydration solution; conditions: PT
Description: Effect of the Prolongation Substance when Added to the Rehydration Solution
[…] These solutions are subsequently measured with the CoaguChek® system (test plus measuring instrument).

[3] = system: control plasma "PreClot I/II"; experiment: aPTT (activated partial thromboplastin time), PTT a reagent, ball coagulometer KC10A
Method: Effect of the Inventive Prolongation Substances when Added to Control Plasmas to Monitor the Determination of aPTT (activated partial thromboplastin time)
The control plasma “PreClot I/II” from Roche Diagnostics is rehydrated according to the instructions of the manufacturer with aqueous solutions in which 0%, 2.0%, 3.5% and 5.0% N-methyl urea (in each case % by weight) are dissolved. The “PTT a reagent for the automated and manual determination of the activated partial thromboplastin time” from Roche Diagnostics is used to determine the clotting time in seconds in the control solutions obtained in this manner on a ball coagulometer KC10A from the Amelung Company (Germany).
The experimental protocol is the same as described in example 2a).
The only amendment was that the following concentrations of guanidine hydrochloride were added to the rehydration solution (in each case % by weight): 0%, 0.5% 1.0% and 1.5%.

[4] = system: lyophilized control plasma "ACT quality control CoaguChek Pro system level 1"; experiment: Activated clotting time (ACT), ACT test cassettes of the CoaguChek Pro system
Method: Effect of the Prolongation Substances According to the Invention when Added to Control Plasmas to Monitor the Determination of the Activated Clotting Time (ACT)
The lyophilized control plasma “ACT quality control CoaguChek® Pro system level 1” from Roche Diagnostics was rehydrated with the supplied rehydration solution according to the instructions of the manufacturer. 0%, 0.25%, 0.5% and 0.75% guanidine hydrochloride (in each case % by weight) were added to these solutions.

[5] = 0.5 % by weight guanidine in the rehydration solution

For `NC(N)=O` [urea], the “time until the onset of coagulation” value ([1]; 2.0 % by weight urea added to rabbit citrate plasma) was 22.9 s, the “time until the onset of coagulation” value ([1]; 3.5 % by weight urea added to rabbit citrate plasma) was 29.6 s and the “time until the onset of coagulation” value ([1]; 5.0 % by weight urea added to rabbit citrate plasma) was 41.2 s. For the same compound, the “time until the onset of coagulation” value ([2]; 2.0 % by weight urea in the rehydration solution) was 19.3 s, the “time until the onset of coagulation” value ([2]; 3.0 % by weight urea in the rehydration solution) was 28.1 s and the “time until the onset of coagulation” value ([2]; 4.0 % by weight urea in the rehydration solution) was 32.2 s. The “time until the onset of coagulation” value ([2]; 5.0 % by weight urea in the rehydration solution) was 37.8 s.
With `CNC(N)=O` [N-methyl-urea] the “time until the onset of coagulation” value ([3]; 2.0 % by weight N-methyl-urea in the rehydration solution) was 34.0 s, the “time until the onset of coagulation” value ([3]; 3.5 % by weight N-methyl-urea in the rehydration solution) was 38.6 s and the “time until the onset of coagulation” value ([3]; 5.0 % by weight N-methyl-urea in the rehydration solution) was 44.0 s.
For `Cl.N=C(N)N` [guanidine, guanidine hydrochloride], the “time until the onset of coagulation” value ([4]; 0.25 % by weight guanidine in the rehydration solution) was 175.6 s, the “time until the onset of coagulation” value [4, 5] was 223.4 s and the “time until the onset of coagulation” value ([4]; 0.75 % by weight guanidine in the rehydration solution) was 305.6 s. For the same compound, the “time until the onset of coagulation” value [3, 5] was 33.1 s, the “time until the onset of coagulation” value ([3]; 1.0 % by weight guanidine in the rehydration solution) was 41.9 s and the “time until the onset of coagulation” value ([3]; 1.5 % by weight guanidine in the rehydration solution) was 51.8 s.
